# According to ChEMBL document CHEMBL5465560, “Selectivity Literature for EUbOPEN Chemogenomic Library” (2024):
# Key:
# [1] = molecular target: Casein kinase II subunit alpha (Homo sapiens, UniProt P68400); experiment: Selectivity interaction (Ambit KINOMEscan and KiNATiv profiling in Jurkat cells) EUB0000090b CSNK2A1; format: cell-based; conditions: at 1 µM
# [2] = molecular target: T1, Serine/threonine-protein kinase 17A (Homo sapiens) (UniProt Q9UEE5); experiment: Selectivity interaction (KinomeScan (DiscoverX)) EUB0001079a STK17A; conditions: at 1 µM
# T1 sequence (whole entry): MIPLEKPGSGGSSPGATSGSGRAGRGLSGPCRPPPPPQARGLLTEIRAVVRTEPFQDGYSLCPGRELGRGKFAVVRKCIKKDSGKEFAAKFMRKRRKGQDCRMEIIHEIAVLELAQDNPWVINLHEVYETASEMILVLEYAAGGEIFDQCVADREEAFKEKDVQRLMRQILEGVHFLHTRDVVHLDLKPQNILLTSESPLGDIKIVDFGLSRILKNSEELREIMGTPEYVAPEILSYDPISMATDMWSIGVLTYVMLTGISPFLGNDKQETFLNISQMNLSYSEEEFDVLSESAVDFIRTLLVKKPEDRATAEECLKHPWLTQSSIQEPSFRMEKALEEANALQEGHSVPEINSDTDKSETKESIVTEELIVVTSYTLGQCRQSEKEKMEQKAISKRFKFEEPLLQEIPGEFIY
# [3] = molecular target: T2, Serine/threonine-protein kinase TBK1 (Homo sapiens) (UniProt Q9UHD2); experiment: Selectivity interaction (ActivX KiNativ screen (ex vivo kinase selectivity in human PBMCs)) EUB0001619a TBK1; format: cell-based; conditions: PBMC, at 1 µM
# T2 sequence (whole entry): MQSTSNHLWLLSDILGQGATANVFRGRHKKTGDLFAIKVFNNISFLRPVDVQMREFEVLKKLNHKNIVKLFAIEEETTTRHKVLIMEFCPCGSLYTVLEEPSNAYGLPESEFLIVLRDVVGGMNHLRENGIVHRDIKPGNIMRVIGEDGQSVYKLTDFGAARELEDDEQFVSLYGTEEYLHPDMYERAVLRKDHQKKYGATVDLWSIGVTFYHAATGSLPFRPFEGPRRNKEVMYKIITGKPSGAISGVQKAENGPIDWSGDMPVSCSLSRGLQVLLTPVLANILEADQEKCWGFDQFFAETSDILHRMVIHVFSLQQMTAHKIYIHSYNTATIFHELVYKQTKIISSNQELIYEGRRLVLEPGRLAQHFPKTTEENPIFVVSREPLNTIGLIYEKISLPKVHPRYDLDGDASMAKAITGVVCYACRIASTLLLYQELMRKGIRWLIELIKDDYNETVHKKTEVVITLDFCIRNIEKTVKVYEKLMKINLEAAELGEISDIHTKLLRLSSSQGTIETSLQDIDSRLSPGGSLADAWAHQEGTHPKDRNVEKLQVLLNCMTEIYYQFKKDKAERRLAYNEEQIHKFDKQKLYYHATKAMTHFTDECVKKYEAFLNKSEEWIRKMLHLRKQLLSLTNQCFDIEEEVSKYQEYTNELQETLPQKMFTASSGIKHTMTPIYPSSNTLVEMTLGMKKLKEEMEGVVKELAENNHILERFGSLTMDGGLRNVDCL
# [4] = molecular target: BDNF/NT-3 growth factors receptor (Homo sapiens) (UniProt Q16620); experiment: Selectivity interaction (KinomeScan (DiscoverX)) EUB0001619a NTRK2; conditions: at 1 µM
# [5] = molecular target: Serine/threonine-protein kinase tousled-like 2 (Homo sapiens) (UniProt Q86UE8); experiment: Selectivity interaction (KinomeScan (DiscoverX)) EUB0001049a TLK2; conditions: at 1 µM
# [6] = molecular target: T3, Beta-adrenergic receptor kinase 1 (Homo sapiens) (UniProt P25098); experiment: Selectivity interaction (KinomeScan (DiscoverX)) EUB0001049a ADRBK1; conditions: at 1 µM
# T3 sequence (whole entry): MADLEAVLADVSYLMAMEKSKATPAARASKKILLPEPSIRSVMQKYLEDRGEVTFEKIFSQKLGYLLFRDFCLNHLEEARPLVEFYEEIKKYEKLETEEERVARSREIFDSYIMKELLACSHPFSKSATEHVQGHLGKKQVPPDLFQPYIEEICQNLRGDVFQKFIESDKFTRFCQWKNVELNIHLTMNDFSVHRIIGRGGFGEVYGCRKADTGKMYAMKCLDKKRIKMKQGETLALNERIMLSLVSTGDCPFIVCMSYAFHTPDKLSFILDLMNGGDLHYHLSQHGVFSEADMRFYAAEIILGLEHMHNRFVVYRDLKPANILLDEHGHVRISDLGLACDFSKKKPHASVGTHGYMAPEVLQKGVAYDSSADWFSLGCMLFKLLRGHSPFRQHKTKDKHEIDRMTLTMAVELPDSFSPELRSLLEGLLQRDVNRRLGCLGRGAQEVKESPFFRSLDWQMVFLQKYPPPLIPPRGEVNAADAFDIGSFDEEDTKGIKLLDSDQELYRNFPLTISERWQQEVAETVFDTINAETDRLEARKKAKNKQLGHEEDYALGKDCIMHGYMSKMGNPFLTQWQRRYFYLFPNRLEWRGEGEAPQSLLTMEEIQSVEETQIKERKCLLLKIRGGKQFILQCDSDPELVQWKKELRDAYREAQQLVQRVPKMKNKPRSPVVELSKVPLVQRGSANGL
# [7] = molecular target: Mitogen-activated protein kinase 4 (Homo sapiens) (UniProt P31152); experiment: Selectivity interaction (KinomeScan (DiscoverX)) EUB0001049a MAPK4; conditions: at 1 µM
# [8] = molecular target: Rho-associated protein kinase 1 (Homo sapiens) (UniProt Q13464); experiment: Selectivity interaction (KinomeScan (DiscoverX)) EUB0000666a ROCK1; conditions: at 10 µM
# [9] = molecular target: Cyclin-dependent kinase-like 1 (Homo sapiens) (UniProt Q00532); experiment: Selectivity interaction (KinomeScan (DiscoverX)) EUB0000666a CDKL1; conditions: at 10 µM
# [10] = molecular target: Tyrosine-protein kinase receptor Tie-1 (Homo sapiens) (UniProt P35590); experiment: Selectivity interaction (KinomeScan (DiscoverX)) EUB0001868a TIE1; conditions: at 1 µM
# [11] = molecular target: T4, Mitogen-activated protein kinase 13 (Homo sapiens) (UniProt O15264); experiment: Selectivity interaction (Kinase panel (Z-LYTE Assay)) EUB0001632a MAPK13; conditions: at 10 µM
# T4 sequence (whole entry): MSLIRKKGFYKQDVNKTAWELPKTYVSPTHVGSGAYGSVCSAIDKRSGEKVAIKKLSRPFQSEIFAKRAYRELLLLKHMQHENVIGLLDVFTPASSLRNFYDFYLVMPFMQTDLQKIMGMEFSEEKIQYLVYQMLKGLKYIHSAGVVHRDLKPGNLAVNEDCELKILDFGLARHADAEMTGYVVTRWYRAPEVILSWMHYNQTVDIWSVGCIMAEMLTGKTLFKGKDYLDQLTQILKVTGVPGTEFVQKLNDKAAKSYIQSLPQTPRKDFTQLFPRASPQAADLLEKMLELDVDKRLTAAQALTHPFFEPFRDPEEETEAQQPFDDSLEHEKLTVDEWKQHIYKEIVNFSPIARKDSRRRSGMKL
# Chain of Serine/threonine-protein kinase tousled-like 2 (Homo sapiens) (Q86UE8 whole entry, looked up): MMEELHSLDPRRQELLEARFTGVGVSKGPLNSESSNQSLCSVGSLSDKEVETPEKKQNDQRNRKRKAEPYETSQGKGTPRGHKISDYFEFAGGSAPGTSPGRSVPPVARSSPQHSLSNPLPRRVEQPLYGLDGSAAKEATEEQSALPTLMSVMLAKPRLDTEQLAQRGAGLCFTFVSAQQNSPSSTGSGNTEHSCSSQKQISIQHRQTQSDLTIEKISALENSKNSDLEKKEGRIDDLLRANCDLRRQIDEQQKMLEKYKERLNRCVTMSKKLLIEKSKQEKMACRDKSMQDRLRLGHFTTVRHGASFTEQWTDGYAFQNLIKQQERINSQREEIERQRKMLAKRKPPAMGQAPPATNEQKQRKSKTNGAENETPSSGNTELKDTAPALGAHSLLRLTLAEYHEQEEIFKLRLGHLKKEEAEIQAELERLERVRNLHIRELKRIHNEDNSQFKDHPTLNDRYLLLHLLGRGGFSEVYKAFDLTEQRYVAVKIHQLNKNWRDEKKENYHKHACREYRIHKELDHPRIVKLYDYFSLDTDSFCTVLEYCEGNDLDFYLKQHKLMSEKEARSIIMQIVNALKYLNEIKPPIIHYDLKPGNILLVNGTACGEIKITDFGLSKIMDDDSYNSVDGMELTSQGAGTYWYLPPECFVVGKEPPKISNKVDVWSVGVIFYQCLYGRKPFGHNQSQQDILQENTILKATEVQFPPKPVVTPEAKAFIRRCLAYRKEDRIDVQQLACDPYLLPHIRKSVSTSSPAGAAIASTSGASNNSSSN
# Chain of BDNF/NT-3 growth factors receptor (Homo sapiens) (Q16620 32-822 limits assumed): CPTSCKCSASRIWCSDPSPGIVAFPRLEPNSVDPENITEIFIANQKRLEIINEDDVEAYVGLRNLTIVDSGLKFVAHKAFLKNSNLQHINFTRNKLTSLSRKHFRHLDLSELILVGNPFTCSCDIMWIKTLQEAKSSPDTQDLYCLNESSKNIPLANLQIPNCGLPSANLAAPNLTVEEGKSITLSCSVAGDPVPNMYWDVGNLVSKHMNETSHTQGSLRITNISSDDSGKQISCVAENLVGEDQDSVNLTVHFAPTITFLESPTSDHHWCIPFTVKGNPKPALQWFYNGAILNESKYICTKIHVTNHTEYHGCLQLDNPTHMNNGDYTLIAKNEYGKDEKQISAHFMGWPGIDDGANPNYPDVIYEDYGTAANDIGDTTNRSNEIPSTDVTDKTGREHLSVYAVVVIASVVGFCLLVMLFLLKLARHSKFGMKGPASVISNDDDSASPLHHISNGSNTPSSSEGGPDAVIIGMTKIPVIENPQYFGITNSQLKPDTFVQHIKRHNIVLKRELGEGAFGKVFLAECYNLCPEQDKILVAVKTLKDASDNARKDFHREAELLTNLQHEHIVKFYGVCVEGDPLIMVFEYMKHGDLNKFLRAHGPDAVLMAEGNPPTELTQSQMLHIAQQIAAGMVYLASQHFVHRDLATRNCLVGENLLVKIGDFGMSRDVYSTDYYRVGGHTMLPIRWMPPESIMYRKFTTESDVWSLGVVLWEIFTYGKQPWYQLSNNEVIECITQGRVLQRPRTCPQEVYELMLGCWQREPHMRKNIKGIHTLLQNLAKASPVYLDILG
# Chain of Rho-associated protein kinase 1 (Homo sapiens) (Q13464 2-1354 limits assumed): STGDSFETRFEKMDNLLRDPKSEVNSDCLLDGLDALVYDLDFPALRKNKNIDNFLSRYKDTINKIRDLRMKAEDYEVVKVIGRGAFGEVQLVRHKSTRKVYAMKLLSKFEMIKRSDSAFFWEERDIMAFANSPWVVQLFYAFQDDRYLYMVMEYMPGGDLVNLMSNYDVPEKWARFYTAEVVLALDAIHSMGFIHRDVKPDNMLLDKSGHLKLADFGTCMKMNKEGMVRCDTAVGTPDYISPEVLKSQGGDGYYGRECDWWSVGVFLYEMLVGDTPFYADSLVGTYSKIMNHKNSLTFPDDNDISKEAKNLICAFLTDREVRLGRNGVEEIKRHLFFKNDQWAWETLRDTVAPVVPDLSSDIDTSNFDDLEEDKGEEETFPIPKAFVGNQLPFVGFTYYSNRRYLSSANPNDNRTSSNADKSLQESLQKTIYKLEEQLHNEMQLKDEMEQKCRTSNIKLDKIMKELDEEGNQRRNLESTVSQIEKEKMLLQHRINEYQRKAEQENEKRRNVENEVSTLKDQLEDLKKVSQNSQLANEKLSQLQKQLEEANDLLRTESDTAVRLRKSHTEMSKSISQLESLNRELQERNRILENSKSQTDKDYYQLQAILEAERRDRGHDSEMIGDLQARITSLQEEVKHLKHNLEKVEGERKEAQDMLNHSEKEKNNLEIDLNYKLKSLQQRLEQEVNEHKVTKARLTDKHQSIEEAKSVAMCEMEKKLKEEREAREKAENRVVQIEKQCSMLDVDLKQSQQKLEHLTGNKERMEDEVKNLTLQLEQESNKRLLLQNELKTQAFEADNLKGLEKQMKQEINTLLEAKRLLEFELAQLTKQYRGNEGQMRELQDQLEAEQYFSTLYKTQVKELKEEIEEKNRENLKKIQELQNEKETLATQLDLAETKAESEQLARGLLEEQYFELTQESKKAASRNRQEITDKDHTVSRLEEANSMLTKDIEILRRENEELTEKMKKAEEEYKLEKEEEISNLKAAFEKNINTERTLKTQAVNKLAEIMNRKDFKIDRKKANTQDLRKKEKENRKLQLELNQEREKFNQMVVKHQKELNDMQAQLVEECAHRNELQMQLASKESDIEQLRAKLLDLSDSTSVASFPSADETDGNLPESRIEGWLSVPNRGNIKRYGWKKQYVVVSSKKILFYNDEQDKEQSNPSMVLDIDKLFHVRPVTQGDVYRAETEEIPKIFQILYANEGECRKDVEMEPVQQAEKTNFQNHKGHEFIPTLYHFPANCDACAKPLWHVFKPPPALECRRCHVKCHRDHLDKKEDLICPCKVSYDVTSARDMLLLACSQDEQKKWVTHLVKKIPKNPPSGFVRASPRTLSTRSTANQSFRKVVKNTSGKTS
# Chain of Tyrosine-protein kinase receptor Tie-1 (Homo sapiens) (P35590 whole entry): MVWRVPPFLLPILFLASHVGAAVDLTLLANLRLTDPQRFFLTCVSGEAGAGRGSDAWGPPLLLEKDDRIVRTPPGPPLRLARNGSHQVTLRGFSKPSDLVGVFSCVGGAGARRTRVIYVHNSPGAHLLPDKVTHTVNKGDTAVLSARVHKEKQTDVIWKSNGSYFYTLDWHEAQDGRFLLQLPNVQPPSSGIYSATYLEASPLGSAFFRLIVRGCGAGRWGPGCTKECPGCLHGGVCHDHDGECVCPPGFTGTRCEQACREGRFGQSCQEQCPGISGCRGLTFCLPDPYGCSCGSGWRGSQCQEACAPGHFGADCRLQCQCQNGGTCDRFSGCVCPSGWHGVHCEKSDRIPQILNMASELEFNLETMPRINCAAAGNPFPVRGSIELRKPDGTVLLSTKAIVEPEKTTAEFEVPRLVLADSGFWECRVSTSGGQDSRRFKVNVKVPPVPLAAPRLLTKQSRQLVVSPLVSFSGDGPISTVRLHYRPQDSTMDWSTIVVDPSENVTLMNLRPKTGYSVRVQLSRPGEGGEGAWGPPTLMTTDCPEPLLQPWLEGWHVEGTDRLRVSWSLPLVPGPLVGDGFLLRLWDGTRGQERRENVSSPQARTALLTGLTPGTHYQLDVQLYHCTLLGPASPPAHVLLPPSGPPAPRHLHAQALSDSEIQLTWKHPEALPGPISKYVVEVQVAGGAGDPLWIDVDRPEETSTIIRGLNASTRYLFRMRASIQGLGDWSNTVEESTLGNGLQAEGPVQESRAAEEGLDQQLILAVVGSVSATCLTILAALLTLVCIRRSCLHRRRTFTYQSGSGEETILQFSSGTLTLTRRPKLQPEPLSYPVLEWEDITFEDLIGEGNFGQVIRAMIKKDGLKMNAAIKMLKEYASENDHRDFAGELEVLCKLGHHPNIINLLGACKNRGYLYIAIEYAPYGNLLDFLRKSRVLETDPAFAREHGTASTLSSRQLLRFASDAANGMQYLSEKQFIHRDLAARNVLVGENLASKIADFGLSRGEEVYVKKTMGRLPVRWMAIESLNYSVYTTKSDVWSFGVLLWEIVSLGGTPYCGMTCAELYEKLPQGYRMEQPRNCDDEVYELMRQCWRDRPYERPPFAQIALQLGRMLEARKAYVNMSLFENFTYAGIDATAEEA
# Chain of Cyclin-dependent kinase-like 1 (Homo sapiens) (Q00532 whole entry): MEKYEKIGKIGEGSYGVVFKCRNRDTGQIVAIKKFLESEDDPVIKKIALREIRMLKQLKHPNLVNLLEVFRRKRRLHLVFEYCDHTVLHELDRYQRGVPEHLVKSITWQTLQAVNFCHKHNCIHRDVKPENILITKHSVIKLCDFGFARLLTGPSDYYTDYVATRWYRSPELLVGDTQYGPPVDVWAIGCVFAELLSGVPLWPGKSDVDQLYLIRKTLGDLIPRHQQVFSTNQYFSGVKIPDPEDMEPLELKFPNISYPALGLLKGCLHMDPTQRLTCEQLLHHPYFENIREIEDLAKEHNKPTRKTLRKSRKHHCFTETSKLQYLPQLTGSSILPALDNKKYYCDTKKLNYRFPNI
# Chain of Mitogen-activated protein kinase 4 (Homo sapiens) (P31152 whole entry): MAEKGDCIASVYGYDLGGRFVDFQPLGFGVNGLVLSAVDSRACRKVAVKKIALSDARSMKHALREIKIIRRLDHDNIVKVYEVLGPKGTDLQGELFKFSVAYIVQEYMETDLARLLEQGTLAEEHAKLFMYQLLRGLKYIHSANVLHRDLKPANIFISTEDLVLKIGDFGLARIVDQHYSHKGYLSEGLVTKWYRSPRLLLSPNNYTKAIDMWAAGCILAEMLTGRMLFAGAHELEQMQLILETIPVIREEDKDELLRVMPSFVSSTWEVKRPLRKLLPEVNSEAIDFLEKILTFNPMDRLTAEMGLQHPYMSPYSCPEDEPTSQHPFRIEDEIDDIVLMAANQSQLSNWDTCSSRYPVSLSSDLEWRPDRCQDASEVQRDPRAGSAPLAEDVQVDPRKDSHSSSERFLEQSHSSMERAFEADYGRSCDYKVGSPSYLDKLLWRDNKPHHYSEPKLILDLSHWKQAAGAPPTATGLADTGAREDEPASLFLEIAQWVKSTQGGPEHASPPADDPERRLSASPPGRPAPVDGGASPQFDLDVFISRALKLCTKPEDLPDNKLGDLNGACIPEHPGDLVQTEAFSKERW
smiles,measurement,setting,value
CN(C)C/C=C/C(=O)Nc1ccc(C(=O)N2CCCC(Nc3ncc(Cl)c(-c4c[nH]c5ccccc45)n3)C2)cc1 (stereo unspecified),% of control,[1],78%
Nc1cnc(N2CCc3cc(S(=O)(=O)Nc4c(F)cc(Cl)cc4F)cc(N4CCCC4=O)c32)nc1 [TP-020n],% of control,[2],100%
N#Cc1cccc(-c2c[nH]c3ncnc(N4CCOCC4)c23)c1,% of inhibition,[3],16%
same,% of control,[4],63%
COc1cc(Nc2nc(C)cc(-c3cnn4nc(OC)ccc34)n2)cc(C(F)(F)F)c1,% of control,[5],98%
same,% of control,[6],100%
same,% of control,[7],100%
O=C(NOC[C@H](O)CO)c1ccc(F)c(F)c1Nc1ccc(I)cc1F,% of control,[8],100%
same,% of control,[9],78%
Cc1cc(-c2ccnc(Nc3cnn(C)c3)n2)ccc1CNC(=O)N1CC(OC(C)C)C1,% of control,[10],46%
Cn1cc(-n2cnc3c(NCc4nc5cc(Cl)c(Cl)cc5[nH]4)nc(N4CCOCC4)nc32)cn1,% of control,[11],3.12%
